Assay [1] has as its target T1, tubulin/RB3-stathmin-like-domain (RB3-SLD-tdm) complex (Sus scrofa, UniProt P02550+P02554).
T1 construct: purchased Cytoskeleton, Inc. T240; host or cells: RB3-SLD was made in house in E. coli
Put plainly: Tubulin Peptide-Binding Site Competition Assay (fluorescence polarization). Also noted: species or system Porcine. As to conditions: FP competition with BODIPY-labeled vinca peptide probe; read after five hours at 22° C.; read-out: Tubulin Peptide-Binding Site Competition Assay IC50. Summed up: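 The BODIPY vinca-peptide probe was premixed with test compound and then added to porcine tubulin/RB3-SLD, at final concentrations of 3 nM probe, 6 nM tubulin and 100 nM RB3-SLD. The buffer was PIPES pH 7.0 with Tween 20, MgCl2 and EGTA, and 11-point dilutions were run in duplicate. IC50 was fitted from the fluorescence polarization decrease and converted to Ki.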

Assay [2] has as its system N87 (gastric cancer) cells. The assay is described as follows: In vitro cell assay (MTS cell viability), N87. Type of assay: cell-based. The following applies: 96 h, free compounds; 96 hours after treatment. Summed up:
(§1)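 Cells seeded 24 h before treatment with antibody-drug conjugates or free compounds, 3-fold serial dilutions at 10 concentrations in duplicate. Viability read by MTS assay 96 h after treatment as % of untreated control; IC50 from four-parameter logistic fit.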

Assay [3] relates to MDA-MB-361-DYT2 (breast cancer) cells. The assay is described as follows: In vitro cell assay (MTS cell viability), MDA-MB-361-DYT2. It counts as cell-based. The following applies: 96 h, free compounds; 96 hours after treatment. In short, it runs like this:
as §1

The next assay relates to HT-29 cells. The assay is described as follows: In vitro cell assay (MTS cell viability), HT-29 (target non-expressing). As to conditions: Homo sapiens, HT-29, 96 h, free compounds; 96 hours after treatment; read-out: HT29 IC50. Type of assay: cell-based. As to the method:
In Vitro Cell Assay Procedure
Target expressing (BT474 (breast cancer), N87 (gastric cancer), HCC1954 (breast cancer), MDA-MB-361-DYT2 (breast cancer)) or non-expressing (HT-29) cells were seeded in 96-well cell culture plates for 24 hours before treatment. Cells were treated with 3-fold serially diluted antibody-drug conjugates or free compounds (i. e. no antibody conjugated to the drug) in duplicate at 10 concentrations. Cell viability was determined by CellTiter 96® AQueous One Solution Cell Proliferation MTS Assay (Promega, Madison Wis.) 96 hours after treatment. Relative cell viability was determined as percentage of untreated control. IC50 values were calculated using a four parameter logistic model #203 with XLfit v4. 2 (IDBS, Guildford, Surry, UK).

IC50 data for six compounds are collected here from patent publication US10723727B2, “Tubulysin analogs and methods for their preparation” (priority 2016, dated 2020).

One may read the IC50 as the concentration at which inhibition is half-maximal. For the compound `CC[C@H](C)[C@H](NC(=O)[C@H](NC)C(C)C)C(=O)N(C)[C@H](C[C@@H](OC(C)=O)c1nc(C(=O)N[C@@H](Cc2ccccc2)C[C@H](C)C(=O)O)cs1)C(C)C` [#B12, N-methyl-D-valyl-N-[(1R,3R)-1-(acetyloxy)-1-(4-{[(2R,4S)-4-carboxy-1-phenylpentan-2-yl]carbamoyl}-1,3-thiazol-2-yl)-4-methylpentan-3-yl]-N-methyl-L-isoleucinamide], the IC50 in assay [1] was less than 0.458 nM; in assay [2], 2.98 nM; in assay [3] it was 2.97 nM; in the assay on HT-29 cells, 4.52 nM.

Turning to `CC[C@H](C)[C@H](NC(=O)C12CCCC(CCC1)N2C)C(=O)N(C)[C@H](C[C@@H](OC(C)=O)c1nc(C(=O)N[C@@H](Cc2ccccc2)C[C@H](C)C(=O)OC)cs1)C(C)C` [#B16, methyl (2S,4R)-4-[({2-[(1R,3R)-1-(acetyloxy)-4-methyl-3-(methyl{N-[(9-methyl-9-azabicyclo[3.3.1]non-1-yl)carbonyl]-L-isoleucyl}amino)pentyl]-1,3-thiazol-4-yl}carbonyl)amino]-2-methyl-5-phenylpentanoate], the IC50 in assay [1] was 10.4 nM; in assay [2] it was less than 0.042 nM; in assay [3], less than 0.064 nM; in the assay with HT-29 cells, less than 0.026 nM.

With `CC[C@H](C)[C@H](NC(=O)[C@@]1(C)CCCN1C)C(=O)N(C)[C@H](C[C@@H](O)c1nc(C(=O)N[C@@H](Cc2ccccc2)C[C@H](C)C(=O)O)cs1)C(C)C` [#B15, 1,2-dimethyl-D-prolyl-N-[(1R,3R)-1-(4-{[(2R,4S)-4-carboxy-1-phenylpentan-2-yl]carbamoyl}-1,3-thiazol-2-yl)-1-hydroxy-4-methylpentan-3-yl]-N-methyl-L-isoleucinamide], the IC50 was 7 nM in assay [1], more than 100 nM in assay [2], more than 100 nM in assay [3] and more than 100 nM in the assay with HT-29 cells.

As to `CC[C@H](C)[C@H](NC(=O)[C@@]1(C)CCCN1C)C(=O)N(C)[C@H](C[C@@H](O)c1nc(C(=O)N[C@@H](Cc2ccc(N)cc2)C[C@H](C)C(=O)O)cs1)C(C)C` [#B32, 1,2-dimethyl-D-prolyl-N-[(1R,3R)-1-(4-{[(2R,4S)-1-(4-aminophenyl)-4-carboxypentan-2-yl]carbamoyl}-1,3-thiazol-2-yl)-1-hydroxy-4-methylpentan-3-yl]-N-methyl-L-isoleucinamide], the half-maximal inhibitory concentration (IC50) in assay [1] was 12.3 nM; in assay [2] it was more than 100 nM; in assay [3], more than 100 nM; in the assay on HT-29 cells it was more than 100 nM.

For the compound `CC[C@H](C)[C@H](NC(=O)[C@@]1(C)CCCN1C)C(=O)N(C)[C@H](C[C@@H](OC(C)=O)c1nc(C(=O)NC(CO)Cc2ccccc2)cs1)C(C)C` (stereo partly drawn) [#B50, 1,2-dimethyl-D-prolyl-N-[(1R,3R)-1-(acetyloxy)-1-{4-[(1-hydroxy-3-phenylpropan-2-yl)carbamoyl]-1,3-thiazol-2-yl}-4-methylpentan-3-yl]-N-methyl-L-isoleucinamide], the IC50 was determined as 8.6 nM in assay [1], 28.1 nM in assay [2], 12.1 nM in assay [3] and 8.84 nM in the assay with HT-29 cells.

For `CC[C@H](C)[C@H](NC(=O)[C@@]1(C)CCCN1C)C(=O)N(C)[C@H](C[C@@H](OC(C)=O)c1nc(C(=O)NCCn2nnc3ccccc32)cs1)C(C)C` [#B79, 1,2-dimethyl-D-prolyl-N-[(1R,3R)-1-(acetyloxy)-1-(4-{[2-(1H-benzotriazol-1-yl)ethyl]carbamoyl}-1,3-thiazol-2-yl)-4-methylpentan-3-yl]-N-methyl-L-isoleucinamide], the IC50 in assay [1] came out at 8.6 nM; in assay [2], 11.2 nM; in assay [3], 5.69 nM; in the assay on HT-29 cells it was 4.39 nM.
